Key:
[1] = tested on: declawed cat with maladaptive pain; experiment: Client Specific Outcome Measure (CSOM) in a declawed cat after perineural RTX nerve blocks; format: in vivo; design: key to CSOM Total score / CSOM Q1 Extending distal limb; “kneading”; stretching / CSOM Q2 Running / CSOM Q3 Jumping down from bed and window: 1 = no problem; 2 = mild difficulty; 3 = moderate; 4 = severe difficulty; 5 = impossible; settings: one cat; for CSOM Q1 Extending distal limb; “kneading”; stretching / CSOM Q2 Running / CSOM Q3 Jumping down from bed and window / CSOM Total score: 2.5 μg/forelimb perineural
Description: Each dose of 5 μg/cat or 2.5 μg/forelimb will be formulated in 1 cc insulin syringes by diluting 0.1 mL: (2.5 μg) of RTX in 0.9 mL sterile saline for injection immediately before use. For treatment, a total of 1.0 mL (2.5 μg) will be injected as nerve blocks, distributed equally (0.25 ml per injection site) over 4 injection sites for each forelimb.
Four point nerve blocks are performed by injection of 0.25 mL RTX each into the 1) superficial branches of the radial nerve, 2) dorsal branch of the ulnar nerve, 3) median nerve and superficial branch of the palmar branch of the ulnar nerve, and 4) deep branch of the palmar branch of the ulnar nerve. The nerve blocks for each forelimb are performed following a published technique for locoregional block of the manus in cats (Enomoto et al. (2016) J. Feline Med. Surg. 18:838-845). To block the superficial branches of the radial nerve (RSbr nn), the limb is positioned with the dorsal aspect facing upwards and the carpus in 180° of extension. A 25 G×⅝-inch needle is inserted subcutaneously (SC) from a point at the center of the limb at the level of the antebrachiocarpal joint. The needle is advanced approximately 10 mm SC at a 10-20° angle to the long axis of the limb with the bevel facing up. Once the tip of the needle is 3-5 mm from the confluence point of the accessory cephalic and cephalic veins, the injection is made (0.25 mL). To block the dorsal branch of the ulnar nerve (UDbr n), the limb is positioned with the lateral aspect facing upwards. A point is located lateral to and at the same level as the accessory carpal bone (ACb), positioned between the ACb and the styloid process of the ulna (SpU). A 25 G×⅝-inch needle is inserted SC distal to proximal, so the tip lies at the midpoint of the groove formed between ACb and the SpU, and then the injection is made (0.25 mL). To block the median nerve (M n) and superficial branch of the palmar branch of the ulnar nerve (UPbrS n), the limb is positioned with the palmar aspect facing upwards. A 25 G×⅝-inch needle is inserted SC at the distal border of the carpal pad and approximately 5 mm lateral to it, perpendicular to the long axis of the metacarpus, with the bevel facing up. The needle is inserted SC until the point is located two-thirds of the distance from the lateral aspect of the limb to the medial aspect. Two-thirds of the injectate volume is deposited at this point and the remaining volume is injected while the needle is withdrawn (0.25 mL). Gentle massage is applied to the injected volume under the skin for 5 seconds. To block the deep branch of the palmar branch of the ulnar nerve (UPbrDp n), the limb is positioned with the palmar aspect facing upwards. A 25 G×⅝-inch needle is inserted almost perpendicular to the ACb in a mediolateral direction such that the needle contacts the medial palmar aspect of the midpoint of the ACb with the bevel facing up. The needle is then redirected dorsally and advanced on the medial side of the ACb 2-3 mm until it penetrates the flexor retinaculum, and then the injection is made (0.25 mL).
The effectiveness of the injection with RTX is assessed at days 3, 7, and 14 using owner videography for qualitative assessment (jumping, manipulation of the limb), and cats will also be evaluated using the Feline Musculoskeletal Pain Index (FMPI) and the Client Specific Outcome Measure (CSOM).
For CSOM, owners are asked to score three attributes (Q1) Extending distal limb, “kneading”; stretching, (Q2) Running; and (Q3) Jumping down from bed and window using a scale of 1-5 where 1=no problem, 2=mild difficulty, 3=moderate, 4=severe difficulty, and 5=impossible.
Tolerance, safety, and analgesic effects of RTX administration were evaluated in a single declawed cat with maladaptive pain. […] The cat also presented a self-limiting decreased appetite for 12 hours post injection.

[2] = tested on: declawed cats with chronic distal thoracic limb pain; experiment: Adverse events in open-label multicenter trial of perineural RTX in declawed cats; format: in vivo, cat; settings: for Animals with self-limiting reactions related to the treatment: during recovery from anesthesia
Description: Cats suffering from severe bilateral chronic pain (more than 90 days) as a result of severe complications after onychectomy were enrolled in this study (an exploratory, open-label, multicenter clinical trial). Thirteen (13) cases were treated for initial pain and reduced quality of life (QoL). Then, bilateral perineural distal limb injections (ring block technique) were administered under general anesthesia (a combination of diphenhydramine, buprenorphine, dexmedetomidine, ketamine, and isoflurane). Following a published technique (Enomoto et al., 2016) for the nerve block of the manus of the cat, the total dose of RTX was equally distributed adjacent to the 1) superficial branch of the radial nerve, 2) dorsal branch of the ulnar nerve, 3) median nerve and superficial branch of the palmar branch of the ulnar nerve, and 4) deep branch of palmar branch of the ulnar nerve. A total of 2.5 ug (1.25 ug/1 mL per forelimb in Group 1, n=7) and 5 ug (2.5 ug/1 mL per forelimb in Group 2, n=6) of RTX was injected as a one-time treatment. Group 2 included the cat for which detailed results are provided in Example B above. Monitoring of QoL and pain for the following 28 days was accomplished using the Client-Specific Outcome Measures feline (CSOMf), the Feline Musculoskeletal Pain Index (FMPI), two post-injection physical examinations, and videography on days 3, 7, 14, and 28 post injections.

C=C(C)[C@]12C[C@@H](C)[C@@]34O[C@](Cc5ccccc5)(O[C@@H]1[C@@H]3C=C(COC(=O)Cc1ccc(O)c(OC)c1)C[C@]1(O)C(=O)C(C)=C[C@@H]41)O2 [RTX, resiniferatoxin]
CSOM Q1 Extending distal limb; “kneading”; stretching ([1]; Day 0 (baseline)): 3 | CSOM Q2 Running ([1]; Day 0 (baseline)): 3 | CSOM Q3 Jumping down from bed and window ([1]; Day 0 (baseline)): 2 | CSOM Total score ([1]; Day 0 (baseline)): 8 | CSOM Q1 Extending distal limb; “kneading”; stretching ([1]; Day 3): 2 | CSOM Q2 Running ([1]; Day 3): 3 | CSOM Q3 Jumping down from bed and window ([1]; Day 3): 2 | CSOM Total score ([1]; Day 3): 7 | CSOM Q1 Extending distal limb; “kneading”; stretching ([1]; Day 7): 1 | CSOM Q2 Running ([1]; Day 7): 2 | CSOM Q3 Jumping down from bed and window ([1]; Day 7): 2 | CSOM Total score ([1]; Day 7): 5 | CSOM Q1 Extending distal limb; “kneading”; stretching ([1]; Day 14): 2 | CSOM Q2 Running ([1]; Day 14): 2 | CSOM Q3 Jumping down from bed and window ([1]; Day 14): 2 | CSOM Total score ([1]; Day 14): 6 | CSOM Q1 Extending distal limb; “kneading”; stretching ([1]; Screening (baseline)): 3 | CSOM Q2 Running ([1]; Screening (baseline)): 3 | CSOM Q3 Jumping down from bed and window ([1]; Screening (baseline)): 2 | CSOM Total score ([1]; Screening (baseline)): 8 | CSOM: extending distal limb, kneading, stretching and running ([1]; after injection): showed improvement | Tolerability of perineural RTX at the described doses ([2]; 2.5 ug and 5 ug total per cat): well tolerated | Adverse event: hypersalivation ([2]; Group 1 (2.5 ug total)): 71.4% | Adverse event: panting ([2]; Group 1 (2.5 ug total)): 57.1% | Adverse event: vocalization ([2]; Group 1 (2.5 ug total)): 57.1% | AEs presented and resolved the same day of administration ([2]; Group 1 (2.5 ug total), 26/30): 86.6% | Animals with self-limiting reactions related to the treatment ([2]; Group 1 (2.5 ug total, 1.25 ug per forelimb, n=7)): 71.4% | Adverse event: hypersalivation ([2]; Group 2 (5 ug total)): 50% | Adverse event: panting ([2]; Group 2 (5 ug total)): 83.3% | Adverse event: vocalization ([2]; Group 2 (5 ug total)): 83.3% | AEs presented and resolved the same day of administration ([2]; Group 2 (5 ug total), 21/22): 95.4% | Animals with self-limiting reactions related to the treatment ([2]; Group 2 (5 ug total, 2.5 ug per forelimb, n=6)): 100% | AEs presented and resolved the same day of administration ([2]; both groups): more than 85% | Time to resolution of most common adverse events after treatment ([2]; both groups): ≤ 4 h
